The test system of one assay is Normal human HFL-1 cells. Put plainly: Cytoprotection assay against paclitaxel. The format is cell-based. The following applies: 2.0 or 10 μM sulfone, paclitaxel 250 nM at time zero or 24 hours later, viable cells after 96 hours of paclitaxel. More on the design: key: +: A compound was deemed to be active if the number of viable cells following the combination treatment was higher than the number of cells after treatment with paclitaxel alone. The procedure: The cytoprotective activity of the same Istyryl benzylsulfones was determined as follows. Normal human HFL-1 cells were plated at a cell density of 1.0×10^5 cells per well in six culture plates. Styryl benzylsulfone was added 24 hours later at a final concentration of either 2.0 or 10 μM. The time of styryl sulfone addition was designated as time zero. Paclitaxel (250 nM) was added at either time zero, or 24 hours after time zero. The total number of viable cells was determined, as described above, after 96 hours of paclitaxel treatment. A compound was deemed to be active if the number of viable cells following the combination treatment was higher than the number of cells after treatment with paclitaxel alone.

Assay [1] relates to HFL-1 cells. The experiment in a line: Long term exposure of normal human fibroblasts, cell count. The following applies: 2.5 or 5.0 μM for 48 or 72 hours, counted 96 hours after the incubation period. It is filed as cell-based. The procedure:
Cells were exposed to either 2.5 or 5.0 μM of the styryl sulfone […] and counted.
HFL-1 cells were plated at a cell density of 1.0×10^5 per well 24 hours prior to drug addition. Cells were exposed to either 2.5 or 5.0 μM (E)-4-fluorostyryl-4-chlorobenzylsulfone for 48 or 72 hours. Cells were counted 96 hours after the incubation period.

Assay [2] relates to HFL-1 cells. The experiment in a line: Protection of normal human fibroblasts from paclitaxel cytotoxicity. It is filed as cell-based. The following applies: HFL-1 cells pretreated with 2.0 μM for 8 hours, then paclitaxel (250 μM); viable cells 96 hours after paclitaxel. The procedure: FIG. 3 is a graph of the effect of paclitaxel on HFL-1 cells which were either pre-treated with (E)-4-fluorostyryl-4-chlorobenzylsulfone and then exposed to paclitaxel, or treated simultaneously with both agents. Cells were enumerated 96 hours after exposure to paclitaxel.
HFL-1 cells were plated at a cell density of 1.0×10^5 per well 24 hours prior to drug addition. Cells were pretreated with (E)-4-fluorostyryl-4-chlorobenzylsulfone (2.0 μM) for 8 hours and then exposed to paclitaxel (250 μM). Other cells were treated with paclitaxel alone, or both agents simultaneously. Cells were enumerated by Trypan blue exclusion using a hematocytometer 96 hours after exposure to paclitaxel. The ordinate in FIG. 3 represents the number of viable cells following treatment with (E)-4-fluorostyryl-4-chlorobenzylsulfone and paclitaxel, divided by the number of viable cells remaining after treatment with paclitaxel alone.

Assay [3] deals with HFL-1 cells. The experiment in a line: Protection of normal human fibroblasts from anticancer agent cytotoxicity (Protection Ratio). The format is cell-based. The following applies: 2.0 μM sulfone 24 hour preincubation, then cisplatin 5.0 μM; viable cells at 96 hours. The procedure:
HFL-1 cells were plated at a cell density of 1.0×10^5 in 1 ml of medium. Twenty-four hours following plating, 2.0 μM of (E)-4-fluorostyryl-4-chlorobenzylsulfone was added to the medium. Following a 24 hour preincubation with the styryl sulfone, the various cytotoxic agents listed in Table 6 were added to the cells, at the concentrations given in Table 6. the number of viable cells was determined by Trypan blue exclusion using a hematocytometer 96 hours after exposure to cytotoxic agent. The “Protection Ratio” is the number of viable cells following treatment with (E)-4-fluorostyryl-4-chlorobenzylsulfone and cytotoxic agent, divided by the number of viable cells remaining after treatment with cytotoxic agent alone. A protection ratio of 2 or more is considered highly significant, while is protection ratio of 1.5-2 is considered less significant.

The subject of assay [4] is HFL-1 cells. Put plainly: Protection of normal human fibroblasts from vincristine cytotoxicity. The format is cell-based. As to conditions: 2.0 μM sulfone 24 hours before vincristine, viability 96 hours after vincristine. The procedure:
Normal HFL cells were treated with 0 to 0.250 nM vincristine and 2.0 μM (E)-4-fluorostyryl-4-chlorobenzylsulfone as indicated. Cell viability was assessed 96 hours after vincristine was added. “V”, vincristine alone; “A→V”, styryl sulfone followed by vincristine 24 hours later; “A+V”, simultaneous styryl sulfone and vincristine treatment; “V→A”, vincristine followed by styryl sulfone 24 hours later.
HFL-1 cells were treated with […] vincristine and, optionally, 2.0 μM (E)-4-fluorostyryl-4-chlorobenzylsulfone either 24 hours before or after vincristine treatment, or simultaneously with vincristine treatment. Cell viability was assessed 96 hours after the addition of vincristine. The results are shown in FIG. 4: “V”, vincristine alone; “A→V”, styryl sulfone followed by vincristine 24 hours later; “A+V”, simultaneous styryl sulfone and vincristine treatment; “V→A”, vincristine followed by styryl sulfone 24 hours later.

For a further assay, the system named is ICR female mice. The experiment in a line: Protection of mice from paclitaxel toxicity (mortality). The format is in vivo. The following applies: 50 mg/Kg i.p. pre-treatment before 150 mg/kg paclitaxel i.p.; mortality at 48 and 144 hours. The procedure: The styryl sulfone was given 24 hours before paclitaxel, 4 hours before paclitaxel, or simultaneously with paclitaxel. Control animals received paclitaxel alone or styryl sulfone alone. Mortality was assessed 48 after paclitaxel injection.
FIG. 6 is similar to FIG. 5, except that mortality was assessed 144 hours post paclitaxel administration.
ICR female mice age 10-12 weeks (Taconic) were divided into the following treatment groups and received intraperitoneal injections of 50 mg/Kg (E)-4-fluorostyryl-4-chlorobenzylsulfone dissolved in DMSO and/or 150 mg/kg paclitaxel (Taxol, Sigma Chemical Co.) dissolved in DMSO. The styryl sulfone was given 24 hours before paclitaxel, 4 hours before paclitaxel, or simultaneously with paclitaxel. Control animals received paclitaxel alone or styryl sulfone alone. Mortality was assessed 48 and 144 hours after paclitaxel injection. The results are shown in FIG. 5 (48 hours post paclitaxel administration) and FIG. 6 (144 hours post paclitaxel administration). Paclitaxel toxicity in mice is abrogated by pre-treatment with (E)-4-fluorostyryl-4-chlorobenzylsulfone.

Each structure is given as a SMILES string. “Also recorded” adds a separate entry of the source.

From patent US6656973B2, “(E)-4-carboxystyrl-4-chlorobenzyl sulfone and pharmaceutical compositions thereof” (Temple University - Of the Commonwealth System of Higher …, priority 1999, dated 2003) come the findings set out here.

Regarding `O=S(=O)(/C=C/c1ccc(Cl)cc1)Cc1ccc(Cl)cc1` [Example 8, (E)-4-chlorostyryl-4-chlorobenzyl sulfone], in the assay with Normal human HFL-1 cells, the Cytoprotection entry is recorded as “+”.
As to `O=S(=O)(/C=C/c1ccc(F)cc1)Cc1ccc(Cl)cc1` [Example 7, (E)-4-fluorostyryl-4-chlorobenzyl sulfone], the “replication rate (cell count)” value in the assay with HFL-1 cells [1] is listed as “transiently reduced replication rates”. In addition, the “protection from the toxic effects of paclitaxel” value in the assay with HFL-1 cells [2] is reported as “conferred protection from the toxic effects of paclitaxel”. In addition, the “Protection Ratio” value in the assay on HFL-1 cells [3] stood at 1.3. Moreover, in the assay on HFL-1 cells [4], the “protection from the toxic effects of vincristine” value was “conferred protection from the toxic effects of vincristine; also recorded: Vincristine toxicity is abrogated”. In addition, the “paclitaxel toxicity in mice (mortality)” value with ICR female mice is listed as “abrogated”. Besides, the Cytoprotection entry in the assay on Normal human HFL-1 cells is given as “+”.
In the case of `O=S(=O)(/C=C/c1ccc(F)cc1Cl)Cc1ccc(Cl)cc1` [Example 9, (E)-2-chloro-4-fluorostyryl-4-chlorobenzyl sulfone], the Cytoprotection result with Normal human HFL-1 cells is “+”.
For the molecule `O=C(O)c1ccc(/C=C/S(=O)(=O)Cc2ccc(Cl)cc2)cc1` [Example 10, (E)-4-carboxystyryl-4-chlorobenzyl sulfone], the Cytoprotection entry in the assay with Normal human HFL-1 cells was “+”.
On the same count and under the same terms, then `O=S(=O)(/C=C/c1ccc(F)cc1)Cc1ccc(Cl)cc1Cl` [Example 11, (E)-4-fluorostyryl-2,4-dichlorobenzyl sulfone], with “+”.
